The values that follow are results of earlier work, collected in article PMC6972991 (Chemistry (Weinheim an Der Bergstrasse, Germany), 2019).

Structures are written as SMILES.

For the compound `O=S(=O)(O)c1ccccc1` [benzenesulfonic acid], the pKa result is on record as “≈ 4”.
